Assay results as given in PubChem BioAssay (NCI).
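A five-concentration, 48-hour dose response in 96-well plates underlies each endpoint, interpolated linearly between surrounding concentrations. The concentration for full growth arrest is given as TGI.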

Key:
Test in all cases: NCI tumour cell line growth inhibition, 48 h
[1] = tested on: SK-MEL-2 melanoma
[2] = tested on: U251 CNS
[3] = tested on: XF 498 CNS
[4] = tested on: 786-0 renal
[5] = tested on: SK-MEL-5 melanoma
[6] = tested on: SN12C renal
[7] = tested on: HOP-92 NSCLC
[8] = tested on: OVCAR-4 ovarian
[9] = tested on: HOP-18 NSCLC
[10] = tested on: OVCAR-5 ovarian
[11] = tested on: M14 melanoma
[12] = tested on: A498 renal
[13] = tested on: NCI-H460 lung
[14] = tested on: MALME-3M melanoma
[15] = tested on: RPMI-8226 leukemia
[16] = tested on: SF-539 CNS
[17] = tested on: MDA-N
[18] = tested on: SNB-19 CNS
[19] = tested on: SNB-78 CNS
[20] = tested on: HS 578T breast
[21] = tested on: OVCAR-8 ovarian
[22] = tested on: NCI-H522 lung
[23] = tested on: HT29 colon
[24] = tested on: SW-620 colon
[25] = tested on: ACHN renal
[26] = tested on: SNB-75 CNS
[27] = tested on: KM20L2 colon
[28] = tested on: HOP-62 NSCLC
[29] = tested on: PC-3 prostate
[30] = tested on: MDA-MB-435
[31] = tested on: SR leukemia
[32] = tested on: HCT-116 colon
[33] = tested on: RXF 393 renal
[34] = tested on: IGROV1 ovarian
[35] = tested on: LXFL 529 NSCLC
[36] = tested on: NCI-H23 lung
[37] = tested on: UACC-62 melanoma
[38] = tested on: HCT-15 colon
[39] = tested on: NCI/ADR-RES ovarian
[40] = tested on: NCI-H226 lung
[41] = tested on: MCF7 breast
[42] = tested on: MOLT-4 leukemia
[43] = tested on: DLD-1 colon
[44] = tested on: HL-60(TB) leukemia
[45] = tested on: BT-549 breast
[46] = tested on: DU-145 prostate
[47] = tested on: UACC-257 melanoma
[48] = tested on: OVCAR-3 ovarian
[49] = tested on: P388 leukemia
[50] = tested on: T-47D breast
[51] = tested on: SN12K1 renal
[52] = tested on: CAKI-1 renal
[53] = tested on: SK-MEL-28 melanoma
[54] = tested on: P388/ADR leukemia
[55] = tested on: CCRF-CEM leukemia
[56] = tested on: A549 NSCLC
[57] = tested on: HCC-2998 colon
[58] = tested on: DMS 273 small cell lung
[59] = tested on: SK-OV-3 ovarian
[60] = tested on: UO-31 renal
[61] = tested on: EKVX NSCLC
[62] = tested on: MDA-MB-231 breast
[63] = tested on: SF-268 CNS
[64] = tested on: DMS 114 small cell lung
[65] = tested on: LOX IMVI melanoma
[66] = tested on: TK-10 renal
[67] = tested on: COLO 205 colon
[68] = tested on: SF-295 CNS
[69] = tested on: KM12 colon
[70] = tested on: K-562 leukemia
[71] = tested on: M19-MEL melanoma

In the case of O=c1[nH]cc(N(CCCl)CCCl)c(=O)[nH]1, the TGI [1] is reported as 204 µM, the TGI [2] is reported as 253 µM and the TGI [3] is reported as 89.7 µM. For the same molecule, the TGI [4] was 64.8 µM, the TGI [5] was 115 µM and the TGI [6] was 162 µM. It also gave a TGI [7] of 123 µM, a TGI [8] of 199 µM and a TGI [9] of 199 µM. It also gave a TGI [10] of 186 µM, a TGI [11] of 89.9 µM and a TGI [12] of 191 µM. It also gave a TGI [13] of 155 µM, a TGI [14] of 106 µM and a TGI [15] of 284 µM. The TGI [16] was 60.5 µM, the TGI [17] was 153 µM and the TGI [18] was 400 µM. The TGI [19] was 369 µM, the TGI [20] was 301 µM and the TGI [21] was 201 µM. It also gave a TGI [22] of 60.9 µM, a TGI [23] of 306 µM and a TGI [24] of 249 µM. It also gave a TGI [25] of 92.6 µM, a TGI [26] of 162 µM and a TGI [27] of 196 µM. It also gave a TGI [28] of 81.7 µM, a TGI [29] of 188 µM and a TGI [30] of 136 µM. The TGI [31] was 55.1 µM, the TGI [32] was 179 µM and the TGI [33] was 81.1 µM. It also gave a TGI [34] of 266 µM, a TGI [35] of 187 µM and a TGI [36] of 97.6 µM. The TGI [37] was 60.6 µM, the TGI [38] was 251 µM and the TGI [39] was 160 µM. It also gave a TGI [40] of 179 µM, a TGI [41] of 205 µM and a TGI [42] of 28.3 µM. For the same molecule, the TGI [43] was 366 µM, the TGI [44] was 36.9 µM and the TGI [45] was 158 µM. The TGI [46] was 303 µM, the TGI [47] was 159 µM and the TGI [48] was 223 µM. It also gave a TGI [49] of 66.7 µM, a TGI [50] of 183 µM and a TGI [51] of 172 µM. For the same molecule, the TGI [52] was 56.7 µM, the TGI [53] was 204 µM and the TGI [54] was 70 µM. It also gave a TGI [55] of 113 µM, a TGI [56] of 314 µM and a TGI [57] of 136 µM. For the same molecule, the TGI [58] was 74.4 µM, the TGI [59] was 183 µM and the TGI [60] was 201 µM. For the same molecule, the TGI [61] was 230 µM, the TGI [62] was 211 µM and the TGI [63] was 192 µM. The TGI [64] was 103 µM, the TGI [65] was 165 µM and the TGI [66] was 325 µM. The TGI [67] was 157 µM, the TGI [68] was 246 µM and the TGI [69] was 232 µM. The TGI [70] was 283 µM and the TGI [71] was 175 µM.
